Test results taken from patent US9617251B2, “Indanylaminopyridylcyclopropanecarboxylic acids, pharmaceutical compositions and uses thereof” (BOEHRINGER INGELHEIM INTERNATIONAL GMBH, priority 2015, dated 2017).
pEC50, pIC50: −log10 of the molar value. ≈ marks a conversion by molar mass, not a printed value.

Columns and labels:
[1] = target: T1, cytochrome P450 2C8-isoenzyme (Homo sapiens, UniProt P10632); assay: Inhibition of CYP-2C8 (deethylation of amodiaquine, human liver microsomes); format: in vitro ADME; settings: CYP-2C8, human liver microsomes, amodiaquine 1 μM, 37° C.
T1 construct: from tissue; host or cells: human liver microsomes
T1 sequence (P10632 1-490): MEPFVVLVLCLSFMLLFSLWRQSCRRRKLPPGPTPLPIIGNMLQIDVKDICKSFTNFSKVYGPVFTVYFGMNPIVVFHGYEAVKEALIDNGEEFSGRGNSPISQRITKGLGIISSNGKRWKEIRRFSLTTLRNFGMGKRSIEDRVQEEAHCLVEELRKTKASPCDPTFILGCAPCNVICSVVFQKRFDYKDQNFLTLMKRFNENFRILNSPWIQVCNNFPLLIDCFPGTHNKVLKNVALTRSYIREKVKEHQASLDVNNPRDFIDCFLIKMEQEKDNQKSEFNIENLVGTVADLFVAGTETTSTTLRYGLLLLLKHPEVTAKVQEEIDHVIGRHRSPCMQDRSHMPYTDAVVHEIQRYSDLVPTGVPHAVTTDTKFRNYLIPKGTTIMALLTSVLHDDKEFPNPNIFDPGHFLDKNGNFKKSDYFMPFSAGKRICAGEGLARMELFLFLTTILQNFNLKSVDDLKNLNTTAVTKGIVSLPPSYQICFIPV
Protocol: The inhibition of cytochrome P450 2C8-isoenzyme catalyzed deethylation of amodiaquine by the test compound is assayed at 37° C. with human liver microsomes. All assays are carried out on a robotic system in 96 well plates. The final incubation volume contains TRIS buffer (0.1 M), MgCl2 (5 mM), human liver microsomes (0.05 mg/mL), amodiaquine (1 μM) and the test compound at five different concentrations or no compound (high control) in duplicate (e.g. highest concentration 10-50 μM with subsequent serial 1:4 dilutions). Following a short preincubation period, reactions are started with the cofactor (NADPH, 1 mM) and stopped by cooling the incubation down to 8° C. and subsequently by addition of one volume of acetonitrile. An internal standard solution—the stable isotope d5-desethylamodiaquine—is added after quenching of incubations. Peak area analyte (=metabolite formed) and internal standard is determined by LC-MS/MS. The resulting peak area ratio analyte to internal standard in these incubations is compared to a control activity containing no test compound. Within each of the assay runs, the IC50 of a positive control inhibitor (Montelukast) is determined. Experimental IC50 values are calculated by least square regression according to the following equation: % control activity=(100% control activity/(1+(I/IC50)S))−B with I=inhibitor concentration; S=slope factor; B=background activity (lower plateau of the inhibition curve)
(§1) If the inhibition of the reaction is already >50% at the lowest concentration of the test compound, the IC50 is assigned “<lowest concentration tested” (usually <0.4 μM). If the inhibition of the reaction is still <50% at the highest concentration of the test compound, the IC50 is assigned “>highest concentration tested” (usually >50 μM).

human GPR40 receptor = human GPR40 receptor (Homo sapiens, UniProt O14842); assay: IP1 accumulation measurements using the IPOne assay system (1321N1 cells stably expressing human GPR40 receptor); format: cell-based; settings: 1321N1 cells expressing human GPR40, 1 h stimulation at 37° C.
Chain of human GPR40 receptor (O14842 whole entry): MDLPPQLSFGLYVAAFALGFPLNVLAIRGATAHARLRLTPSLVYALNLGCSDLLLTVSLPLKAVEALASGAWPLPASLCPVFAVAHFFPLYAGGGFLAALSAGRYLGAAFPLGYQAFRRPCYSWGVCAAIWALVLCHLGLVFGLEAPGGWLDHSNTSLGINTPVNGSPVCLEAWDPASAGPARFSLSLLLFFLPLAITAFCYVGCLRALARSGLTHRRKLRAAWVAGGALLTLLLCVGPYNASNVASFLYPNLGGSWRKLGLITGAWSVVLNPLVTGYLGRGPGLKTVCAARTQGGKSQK
Protocol: IP1 accumulation measurements using the IPOne assay system—1321N1 cells stably expressing human GPR40 receptor (Euroscreen, Belgium) are seeded 24 h before the assay in white 384-well plates in culture medium containing 10% FCS, 1% Na-Pyruvate and 400 μg/mL G418. IP1 is assayed according to the manufacturer's description (Cisbio Bioassays, France). In brief, the assay is started by substitution of the culture medium by stimulation buffer (Hepes 10 mM, CaCl2 1 mM, MgCl2 0.5 mM, KCl 4.2 mM, NaCl 146 mM, glucose 5.5 mM and LiCl 50 mM, pH 7.4). Cells are stimulated for 1 h at 37° C., 5% CO2 by addition of the compounds that are diluted in stimulation buffer containing LiCl. Assays are stopped by adding HTRF-conjugates (IP1-d2 and Anti-IP1 cryptate Tb) and lysis buffer, provided by the manufacturer. After an incubation time of 1 h at room temperature plates are measured using an EnVision™, Perkin Elmer. The obtained fluorescence ratios at 665/615 […] are then used to calculate the pEC50 values using Assay Explorer 3.3 Software (Accelrys, Inc.) by interpolation using an IP1 reference curve and subsequent sigmoidal curve fitting allowing for a variable hill slope.

[2] = target: T2, cytochrome P450 2C9-isoenzyme (Homo sapiens, UniProt P11712); assay: Inhibition of CYP-2C9 (hydroxylation of diclofenac, human liver microsomes); format: in vitro ADME; settings: CYP-2C9, human liver microsomes, diclofenac 10 μM, 37° C.
T2 construct: from tissue; host or cells: human liver microsomes
T2 sequence (P11712 whole entry): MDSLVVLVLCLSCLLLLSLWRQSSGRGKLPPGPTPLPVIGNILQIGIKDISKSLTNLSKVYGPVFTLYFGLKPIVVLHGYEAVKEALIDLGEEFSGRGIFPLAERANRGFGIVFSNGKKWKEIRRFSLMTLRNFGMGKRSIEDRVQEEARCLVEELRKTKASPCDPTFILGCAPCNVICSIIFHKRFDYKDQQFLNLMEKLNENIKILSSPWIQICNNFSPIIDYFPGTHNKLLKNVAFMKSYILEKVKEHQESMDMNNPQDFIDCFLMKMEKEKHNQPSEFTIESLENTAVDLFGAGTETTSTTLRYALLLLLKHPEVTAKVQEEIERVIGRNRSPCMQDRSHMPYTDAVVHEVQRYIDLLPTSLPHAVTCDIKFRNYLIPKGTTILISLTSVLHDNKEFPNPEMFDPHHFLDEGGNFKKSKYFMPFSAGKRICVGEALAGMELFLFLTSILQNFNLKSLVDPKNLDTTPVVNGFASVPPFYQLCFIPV
Protocol: The inhibition of cytochrome P450 2C9-isoenzyme catalyzed hydroxylation of diclofenac by the test compound is assayed at 37° C. with human liver microsomes. All assays are carried out on a robotic system in 96 well plates. The final incubation volume contains TRIS buffer (0.1 M), MgCl2 (5 mM), human liver microsomes (0.1 mg/mL), diclofenac (10 μM) and the test compound at five different concentrations or no compound (high control) in duplicate (e.g., highest concentration 10-50 μM with subsequent serial 1:4 dilutions). Following a short preincubation period, reactions are started with the cofactor (NADPH, 1 mM) and stopped by cooling the incubation down to 8° C. and subsequently by addition of one volume of acetonitrile. An internal standard solution—the stable isotope ^13C6-hydroxydiclofenac—is added after quenching of incubations. Peak area analyte (=metabolite formed) and internal standard is determined by LC-MS/MS. The resulting peak area ratio analyte to internal standard in these incubations is compared to a control activity containing no test compound. Within each of the assay runs, the IC50 of a positive control inhibitor (sulfaphenazole) is determined. Experimental IC50 values are calculated by least square regression according to the following equation: % control activity=(100% control activity/(1+(I/IC50)S))−B with I=inhibitor concentration; S=slope factor; B=background activity (lower plateau of the inhibition curve)
as §1

[3] = Aqueous solubility in buffer vs acetonitrile/water (1/1), LC-UV; format: physicochemical; settings: kinetic from dmso stock, buffer pH 2.2, 24 h shaking, 2.5% DMSO
Protocol: The aqueous solubility of the compounds of the invention is determined by comparing the amount dissolved in buffer to the amount in an acetonitrile/water (1/1) solution. Starting from a 10 mM DMSO stock solution aliquots are diluted with acetonitrile/water (1/1) or buffer, respectively. After 24 h of shaking, the solutions are filtrated and analyzed by LC-UV. The amount dissolved in buffer is compared to the amount in the acetonitrile solution.
Solubility is usually being measured from 0.001 to 0.125 mg/mL at a DMSO concentration of 2.5%. If more than 90% of the compound is dissolved in buffer, the value is marked with “>”.

| SMILES | pIC50 [1] | pEC50 (human GPR40 receptor) | pIC50 [2] | solubility at 24 h [3] |
| --- | --- | --- | --- | --- |
| Cc1cc(-c2nnn(C)n2)cc(C)c1-c1cccc2c1CC[C@H]2Nc1ccc(C2C[C@@H]2C(=O)O)cn1 (mixture of isomers) [Example 5, trans-2-(6-{(R)-4-[2,6-Dimethyl-4-(2-methyl-2H-tetrazol-5-yl)-phenyl]-indan-1-ylamino}-pyridin-3-yl)-cyclopropanecarboxylic acid] | 4.92 | 7.80 | 4.32 |  |
| Cc1cc(OCCC(C)(C)O)cc(C)c1-c1cccc2c1CC[C@H]2Nc1ccc(C2C[C@@H]2C(=O)O)cn1 (mixture of isomers) [Example 6, trans-2-(6-{(R)-4-[4-(3-Hydroxy-3-methyl-butoxy)-2,6-dimethyl-phenyl]-indan-1-ylamino}-pyridin-3-yl)-cyclopropanecarboxylic acid] | < 4.30 | 7.72 | < 4.30 |  |
| Cc1cc(-c2nnn(C)n2)cc(C)c1-c1ccc(F)c2c1CC[C@H]2Nc1ccc(C2C[C@@H]2C(=O)O)cn1 (mixture of isomers) [Example 7, trans-2-(6-{(R)-4-[2,6-Dimethyl-4-(2-methyl-2H-tetrazol-5-yl)-phenyl]-7-fluoro-indan-1-ylamino}-pyridin-3-yl)-cyclopropanecarboxylic acid] | 4.42 | 7.72 | < 4.30 |  |
| Cc1cc(OCCC(C)(C)O)cc(C)c1-c1ccc(F)c2c1CC[C@H]2Nc1ccc(C2C[C@@H]2C(=O)O)cn1 (mixture of isomers) [Example 8, trans-2-(6-{(R)-7-Fluoro-4-[4-(3-hydroxy-3-methyl-butoxy)-2,6-dimethyl-phenyl]-indan-1-ylamino}-pyridin-3-yl)-cyclopropanecarboxylic acid] | < 4.30 | 7.80 | < 4.30 |  |
| Cc1cc(-c2nnn(C)n2)cc(C)c1-c1ccc(F)c2c1CC[C@H]2Nc1ccc([C@H]2C[C@@H]2C(=O)O)cn1 [Example 3, (1S,2S)-2-(6-{(R)-4-[2,6-Dimethyl-4-(2-methyl-2H-tetrazol-5-yl)-phenyl]-7-fluoro-indan-1-ylamino}-pyridin-3-yl)-cyclopropanecarboxylic acid] | 4.72 | 8.40 | < 4.30 | 91 µg/mL (≈ 183 µM) |
| Cc1cc(O[C@H]2CCOC2)cc(C)c1-c1ccc(F)c2c1CC[C@H]2Nc1ccc([C@H]2C[C@@H]2C(=O)O)cn1 [Example 13] | 4.31 | 7.57 | < 4.30 | 115 µg/mL (≈ 229 µM) |
| Cc1cc(-c2nnn(CC(C)(C)O)n2)cc(C)c1-c1ccc(F)c2c1CC[C@H]2Nc1ccc([C@H]2C[C@@H]2C(=O)O)cn1 [Example 14] | 4.35 | 8.40 | < 4.30 | 83 µg/mL (≈ 149 µM) |
| Cc1cc(OC2CCOCC2)cc(C)c1-c1ccc(F)c2c1CC[C@H]2Nc1ccc([C@H]2C[C@@H]2C(=O)O)cn1 [Example 15] | 4.59 | 7.74 | < 4.30 |  |
| Cc1cc(OCC2CCOC2)cc(C)c1-c1ccc(F)c2c1CC[C@H]2Nc1ccc([C@H]2C[C@@H]2C(=O)O)cn1 (stereo partly shown) [Example 16] | 4.34 | 7.96 | < 4.30 | 110 µg/mL (≈ 213 µM) |
| Cc1cccc(C)c1-c1ccc(F)c2c1CC[C@H]2Nc1ccc([C@H]2C[C@@H]2C(=O)O)cn1 [Example 17] | 4.47 | 7.89 | 4.44 | 65 µg/mL (≈ 156 µM) |
| Cc1cc(-c2nnnn2CC(C)(C)O)cc(C)c1-c1ccc(F)c2c1CC[C@H]2Nc1ccc([C@H]2C[C@@H]2C(=O)O)cn1 [Example 24] | < 4.30 | 6.50 | < 4.30 | 103 µg/mL (≈ 185 µM) |
| Cc1cc(-c2nnn[nH]2)cc(C)c1-c1ccc(F)c2c1CC[C@H]2Nc1ccc([C@H]2C[C@@H]2C(=O)O)cn1 [Example 25] | 5.40 | 6.75 | < 4.30 | 67 µg/mL (≈ 138 µM) |
| Cc1cc(CO)cc(C)c1-c1ccc(F)c2c1CC[C@H]2Nc1ccc([C@H]2C[C@@H]2C(=O)O)cn1 [Example 28] | < 4.30 | 7.15 | < 4.30 | 87 µg/mL (≈ 195 µM) |
| Cc1cc(OCC(C)(C)O)cc(C)c1-c1ccc(F)c2c1CC[C@H]2Nc1ccc([C@H]2C[C@@H]2C(=O)O)cn1 [Example 29] | < 4.30 | 7.77 | < 4.30 | 111 µg/mL (≈ 220 µM) |
| Cc1cc(OCc2ccccc2)cc(C)c1-c1ccc(F)c2c1CC[C@H]2Nc1ccc([C@H]2C[C@@H]2C(=O)O)cn1 [Example 32] | 4.92 | 7.46 | 4.62 | < 1 µg/mL |
| Cc1cc(C(=O)O)cc(C)c1-c1ccc(F)c2c1CC[C@H]2Nc1ccc([C@H]2C[C@@H]2C(=O)O)cn1 [Example 40] | < 4.30 | 6.03 | < 4.30 |  |
| Cc1cc(OCC2(O)CCS(=O)(=O)CC2)cc(C)c1-c1ccc(F)c2c1CC[C@H]2Nc1ccc([C@H]2C[C@@H]2C(=O)O)cn1 [Example 64] | < 4.30 | 7.54 | < 4.30 |  |
